# Experimental data as given in ChEMBL document CHEMBL1136598, “Design, synthesis, and structure-activity relationships of unsubstituted piperazinone-based transition state factor Xa inhibitors” (Bioorg Med Chem Lett, 2003).
# Active and inactive are the calls of the source. No cut-off for these calls is given here.
# How the values were obtained:
# [1] = molecular target: T1, Coagulation factor X (Homo sapiens, UniProt P00742); assay: In vitro inhibitory activity against factor Xa
# [2] = molecular target: Prothrombin (Homo sapiens, UniProt P00734); assay: In vitro inhibitory activity against serine protease thrombin
# [3] = molecular target: T1, Coagulation factor X; assay: (§1) In vitro binding affinity towards factor Xa
# [4] = Inhibitory activity against Kallikrein
# [5] = system: Oryctolagus cuniculus; assay: In vivo plasma concentration required to inhibit thrombosis formation in rabbit; type: functional, organism-based
# [6] = molecular target: Tissue-type plasminogen activator (Homo sapiens, UniProt P00750); assay: Inhibitory activity against tissue plasminogen activator (tissue plasminogen activator)
# Chain of Tissue-type plasminogen activator (P00750 whole entry): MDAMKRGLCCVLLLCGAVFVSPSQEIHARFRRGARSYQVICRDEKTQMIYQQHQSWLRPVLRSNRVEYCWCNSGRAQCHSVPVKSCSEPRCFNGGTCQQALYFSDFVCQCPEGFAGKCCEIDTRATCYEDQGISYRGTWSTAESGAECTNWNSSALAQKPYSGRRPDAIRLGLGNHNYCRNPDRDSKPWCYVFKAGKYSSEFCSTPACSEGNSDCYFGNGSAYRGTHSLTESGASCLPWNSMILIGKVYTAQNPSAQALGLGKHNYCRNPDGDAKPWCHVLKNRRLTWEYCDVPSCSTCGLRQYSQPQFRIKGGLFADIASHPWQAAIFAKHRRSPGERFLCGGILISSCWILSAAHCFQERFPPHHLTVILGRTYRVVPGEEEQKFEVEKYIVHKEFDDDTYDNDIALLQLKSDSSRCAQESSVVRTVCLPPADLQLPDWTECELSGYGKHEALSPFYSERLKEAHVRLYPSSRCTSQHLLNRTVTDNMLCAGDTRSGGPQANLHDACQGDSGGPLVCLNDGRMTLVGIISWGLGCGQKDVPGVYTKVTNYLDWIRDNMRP
# [7] = In vivo half life period after intravenous administration in rat; type: ADME, organism-based
# [8] = In vitro anticoagulant activity was measured by plasma based on thrombin generation (TG) assay; type: functional
# [9] = molecular target: Vitamin K-dependent protein C (Homo sapiens, UniProt P04070); assay: Inhibitory activity against activated protein C (aPC)
# Chain of Vitamin K-dependent protein C (P04070 43-197 limits assumed): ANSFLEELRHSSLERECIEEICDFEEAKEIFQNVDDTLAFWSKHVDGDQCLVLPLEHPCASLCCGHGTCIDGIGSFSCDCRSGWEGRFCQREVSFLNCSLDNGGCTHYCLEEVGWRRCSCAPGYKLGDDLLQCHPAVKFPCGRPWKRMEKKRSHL
# Chain of Vitamin K-dependent protein C (P04070 212-461 limits assumed): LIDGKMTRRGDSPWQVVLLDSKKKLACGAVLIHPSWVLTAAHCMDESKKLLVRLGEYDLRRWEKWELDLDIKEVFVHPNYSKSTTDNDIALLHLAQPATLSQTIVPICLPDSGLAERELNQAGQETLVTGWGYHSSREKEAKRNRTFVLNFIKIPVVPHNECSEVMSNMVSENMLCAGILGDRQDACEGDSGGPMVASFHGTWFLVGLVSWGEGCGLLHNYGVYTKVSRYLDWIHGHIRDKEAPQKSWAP
# [10] = system: Oryctolagus cuniculus; assay: In vivo inhibition thrombosis formation in rabbit; type: functional
# [11] = In vitro anticoagulant activity was measured by prothrombin time (PT) assay; type: functional
# [12] = In vitro anticoagulant activity was measured by activated partial thromboplastin time (APTT) assay; type: functional
# [13] = molecular target: Plasminogen (Homo sapiens, UniProt P00747); assay: Inhibitory activity against Plasmin
# Chain of Plasminogen (P00747 97-580 limits assumed): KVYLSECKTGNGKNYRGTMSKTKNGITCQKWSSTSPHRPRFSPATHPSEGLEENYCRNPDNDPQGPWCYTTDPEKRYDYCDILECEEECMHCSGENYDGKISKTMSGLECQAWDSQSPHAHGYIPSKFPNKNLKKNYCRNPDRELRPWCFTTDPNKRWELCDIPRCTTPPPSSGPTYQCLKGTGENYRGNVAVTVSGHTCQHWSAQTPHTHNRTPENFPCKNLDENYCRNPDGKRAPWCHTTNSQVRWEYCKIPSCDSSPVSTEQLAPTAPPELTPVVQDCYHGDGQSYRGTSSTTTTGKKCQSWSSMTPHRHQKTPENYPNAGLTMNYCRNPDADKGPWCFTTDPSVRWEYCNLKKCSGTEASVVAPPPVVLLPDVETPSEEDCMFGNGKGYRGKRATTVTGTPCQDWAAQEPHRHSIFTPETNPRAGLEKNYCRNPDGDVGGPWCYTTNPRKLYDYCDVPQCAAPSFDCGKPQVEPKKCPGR
# Chain of Plasminogen (P00747 581-810 limits assumed): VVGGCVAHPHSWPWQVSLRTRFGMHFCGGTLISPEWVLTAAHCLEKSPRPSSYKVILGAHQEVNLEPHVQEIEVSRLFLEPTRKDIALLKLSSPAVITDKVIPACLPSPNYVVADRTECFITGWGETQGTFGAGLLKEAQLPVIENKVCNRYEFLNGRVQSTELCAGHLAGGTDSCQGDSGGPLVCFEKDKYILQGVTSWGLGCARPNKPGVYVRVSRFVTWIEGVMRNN
# [14] = molecular target: Serine protease 1 (Homo sapiens, UniProt P07477); assay: Inhibitory activity against Trypsin
# Chain of Serine protease 1 (P07477 whole entry): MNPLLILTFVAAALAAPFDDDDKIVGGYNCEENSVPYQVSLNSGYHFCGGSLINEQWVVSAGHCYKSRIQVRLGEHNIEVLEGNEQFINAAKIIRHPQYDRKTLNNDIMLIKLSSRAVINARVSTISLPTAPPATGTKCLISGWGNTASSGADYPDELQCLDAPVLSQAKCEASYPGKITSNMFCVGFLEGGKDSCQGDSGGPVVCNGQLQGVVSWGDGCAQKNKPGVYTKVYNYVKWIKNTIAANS
# [15] = molecular target: T1, Coagulation factor X; assay: as §1; remark: listed apart in the source
# T1 sequence (P00742 41-179 limits assumed): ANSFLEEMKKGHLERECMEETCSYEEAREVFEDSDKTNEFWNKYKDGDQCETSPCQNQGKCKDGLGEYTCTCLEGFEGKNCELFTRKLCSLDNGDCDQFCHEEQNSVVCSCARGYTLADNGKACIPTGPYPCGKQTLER
# T1 sequence (P00742 235-488 limits assumed): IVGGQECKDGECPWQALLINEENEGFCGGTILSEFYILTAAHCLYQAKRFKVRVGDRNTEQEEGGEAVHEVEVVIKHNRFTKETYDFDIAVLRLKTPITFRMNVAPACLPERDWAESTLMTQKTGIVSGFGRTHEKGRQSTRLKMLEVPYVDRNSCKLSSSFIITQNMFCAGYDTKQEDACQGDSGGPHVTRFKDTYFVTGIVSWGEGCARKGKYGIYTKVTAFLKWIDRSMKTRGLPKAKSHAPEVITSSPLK
Structure (SMILES),IC50 [1],IC50 [2],also measured
N=C(N)NCCCC(NC(=O)CN1CCN(S(=O)(=O)c2cccc3ccccc23)CC1=O)C(=O)c1nccs1 (stereo not drawn),2 nM,118 nM,
N=C(N)NCCC[C@@H](NC(=O)CN1CCN(S(=O)(=O)c2ccc(Cl)cc2)CC1=O)C(=O)c1nccs1,,1000 nM,k off [3]: 0.19 s⁻¹; k on [3]: 3.4e+06 M⁻¹ s⁻¹; IC50 [4]: 406 nM; Plasma concentration [5]: 0.5 µM; IC50 [6]: 1880 nM; half-life [7]: 22 min; 2x TG [8]: 0.52 µM; IC50 [9]: > 180000 nM; Inhibition [10]: 90%; 2x PT [11]: 11.2 µM; 2x APTT [12]: 4.2 µM; IC50 [13]: 10700 nM; IC50 [14]: 10.8 nM
N=C(N)NCCCC(NC(=O)CN1CCN(S(=O)(=O)c2ccc3ccccc3c2)CC1=O)C(=O)c1nccs1 (stereo not drawn),8 nM,6000 nM,k off [3]: 0.132 s⁻¹; k on [3]: 6.3e+06 M⁻¹ s⁻¹; IC50 [4]: 390 nM; Plasma concentration [5]: 0.8 µM; IC50 [6]: 1850 nM; half-life [7]: 15 min; 2x TG [8]: inactive; IC50 [9]: > 180000 nM; Inhibition [10]: 0%; 2x PT [11]: 14.5 µM; 2x APTT [12]: 13.5 µM; Ki [15]: 2.7 nM; IC50 [13]: 6960 nM; IC50 [14]: 39.1 nM
N=C(N)NCCCC(NC(=O)CN1CCN(S(=O)(=O)c2cc(Cl)c(Cl)cc2Cl)CC1=O)C(=O)c1nccs1 (stereo not drawn),1 nM,573 nM,
N=C(N)NCCCC(NC(=O)CN1CCN(S(=O)(=O)/C=C/c2ccccc2)CC1=O)C(=O)c1nccs1 (stereo not drawn),13 nM,7000 nM,
N=C(N)NCCC[C@@H](NC(=O)CNC(=O)[C@H](Cc1c[nH]c2ccccc12)NS(=O)(=O)Cc1ccccc1)C(=O)c1nccs1,2 nM,870 nM,
N=C(N)NCCC[C@@H](NC(=O)CN1CCN(C(=O)Cc2ccc(Cl)cc2)CC1=O)C(=O)c1nccs1,17 nM,11000 nM,
N=C(N)NCCC[C@@H](NC(=O)CN1CCN(S(=O)(=O)Cc2ccccc2)CC1)C(=O)c1nccs1,24000 nM,> 500000 nM,
N=C(N)NCCCC(NC(=O)CN1CCN(S(=O)(=O)c2cccc(Cl)c2)CC1=O)C(=O)c1nccs1 (stereo not drawn),5 nM,134 nM,
N=C(N)NCCCC(NC(=O)CN1CCN(S(=O)(=O)c2ccc(C(F)(F)F)cc2)CC1=O)C(=O)c1nccs1 (stereo not drawn),10 nM,6000 nM,
N#Cc1c(Cl)cccc1Oc1ccc(S(=O)(=O)N2CCN(CC(=O)NC(CCCNC(=N)N)C(=O)c3nccs3)C(=O)C2)cc1 (stereo not drawn),38 nM,4000 nM,
N=C(N)NCCCC(NC(=O)CN1CCN(S(=O)(=O)c2cccc3cnccc23)CC1=O)C(=O)c1nccs1 (stereo not drawn),1 nM,267 nM,
N=C(N)NCCCC(NC(=O)CN1CCN(S(=O)(=O)c2ccc(Cl)c(Cl)c2)CC1=O)C(=O)c1nccs1 (stereo not drawn),1 nM,1000 nM,
N=C(N)NCCCC(NC(=O)CN1CCN(S(=O)(=O)c2ccc(N)cc2)CC1=O)C(=O)c1nccs1 (stereo not drawn),6 nM,5000 nM,
N=C(N)NCCC[C@@H](NC(=O)CN1CCN(S(=O)(=O)Cc2ccccc2)CCC1=O)C(=O)c1nccs1,5 nM,2000 nM,
N=C(N)NCCC[C@@H](NC(=O)CN1CCN(C(=O)c2ccc(Cl)cc2)CC1=O)C(=O)c1nccs1,118 nM,5000 nM,
N=C(N)NCCC[C@@H](NC(=O)CN1CCN(Cc2ccccc2)CC1=O)C(=O)c1nccs1,771 nM,14000 nM,
N=C(N)NCCCC(NC(=O)CN1CCN(S(=O)(=O)CCc2cccc3ccccc23)CC1=O)C(=O)c1nccs1 (stereo not drawn),3 nM,375 nM,
N=C(N)NCCC[C@@H](NC(=O)CN1CCN(C(=O)c2ccccc2)CC1=O)C(=O)c1nccs1,320 nM,7000 nM,
N=C(N)NCCCC(NC(=O)CN1CCN(S(=O)(=O)c2cccc3cccnc23)CC1=O)C(=O)c1nccs1 (stereo not drawn),2 nM,569 nM,k off [3]: 0.107 s⁻¹; k on [3]: 2.9e+06 M⁻¹ s⁻¹; IC50 [4]: 240 nM; Plasma concentration [5]: 0.4 µM; IC50 [6]: 150 nM; half-life [7]: 29 min; 2x TG [8]: 2.5 µM; IC50 [9]: > 180000 nM; Inhibition [10]: 0%; 2x PT [11]: 10.4 µM; 2x APTT [12]: 2 µM; Ki [15]: 4.4 nM; IC50 [13]: 10 nM; IC50 [14]: 2 nM
CC(=O)Nc1nc(C)c(S(=O)(=O)N2CCN(CC(=O)NC(CCCN=C(N)N)C(=O)c3nccs3)C(=O)C2)s1 (stereo not drawn),58 nM,4000 nM,

Structure (SMILES),IC50 [1],IC50 [2],also measured
N=C(N)NCCC[C@@H](NC(=O)CN1CCNCC1=O)C(=O)c1nccs1,2000 nM,220000 nM,
N=C(N)NCCCC(NC(=O)CN1CCN(S(=O)(=O)c2ccc([N+](=O)[O-])cc2)CC1=O)C(=O)c1nccs1 (stereo not drawn),6 nM,3000 nM,
N#Cc1ccc(S(=O)(=O)N2CCN(CC(=O)NC(CCCNC(=N)N)C(=O)c3nccs3)C(=O)C2)cc1 (stereo not drawn),32 nM,3000 nM,
N=C(N)NCCC[C@@H](NC(=O)Cn1cccc(NS(=O)(=O)Cc2ccccc2)c1=O)C(=O)c1nccs1,,8 nM,
N=C(N)NCCCC(NC(=O)CN1CCN(S(=O)(=O)c2ccc(NO)cc2)CC1=O)C(=O)c1nccs1 (stereo not drawn),10 nM,7000 nM,
N=C(N)NCCC[C@@H](NC(=O)CN1CCN(S(=O)(=O)c2ccccc2)CC1=O)C(=O)c1nccs1,8 nM,417 nM,
CC(=O)Nc1ccc(S(=O)(=O)N2CCN(CC(=O)NC(CCCNC(=N)N)C(=O)c3nccs3)C(=O)C2)cc1 (stereo not drawn),116 nM,5000 nM,
N=C(N)NCCCC(NC(=O)CN1CCN(S(=O)(=O)c2ccc(C(=O)O)cc2)CC1=O)C(=O)c1nccs1 (stereo not drawn),510 nM,17000 nM,
CS(=O)(=O)c1ccc(S(=O)(=O)N2CCN(CC(=O)NC(CCCN=C(N)N)C(=O)c3nccs3)C(=O)C2)cc1 (stereo not drawn),85 nM,4000 nM,
N=C(N)NCCC[C@@H](NC(=O)CN1CCN(C(=O)Cc2ccccc2)CC1=O)C(=O)c1nccs1,21 nM,2000 nM,
Cc1nsc(C)c1S(=O)(=O)N1CCN(CC(=O)NC(CCCNC(=N)N)C(=O)c2nccs2)C(=O)C1 (stereo not drawn),69 nM,669 nM,
N=C(N)NCCCC(NC(=O)CN1CCN(S(=O)(=O)c2cccc3nonc23)CC1=O)C(=O)c1nccs1 (stereo not drawn),2 nM,719 nM,
N=C(N)NCCCC(NC(=O)CN1CCN(S(=O)(=O)c2ccc(Br)cc2)CC1=O)C(=O)c1nccs1 (stereo not drawn),0.7 nM,809 nM,
N=C(N)NCCCC(NC(=O)CN1CCN(S(=O)(=O)c2cccc3c(Cl)cccc23)CC1=O)C(=O)c1nccs1 (stereo not drawn),0.62 nM,185 nM,
COc1ccc(S(=O)(=O)N2CCN(CC(=O)NC(CCCNC(=N)N)C(=O)c3nccs3)C(=O)C2)cc1 (stereo not drawn),0.89 nM,792 nM,
N=C(N)NCCCC(NC(=O)CN1CCN(S(=O)(=O)c2ccc(-c3ccccn3)s2)CC1=O)C(=O)c1nccs1 (stereo not drawn),4 nM,4000 nM,
N=C(N)NCCC[C@@H](NC(=O)CN1CCCC(CCC2CCNCC2)C1=O)C(=O)c1nccs1 (stereo partly drawn),65 nM,12000 nM,
N=C(N)NCCC[C@@H](NC(=O)CN1CCC[C@H](NS(=O)(=O)Cc2ccccc2)C1=O)C(=O)c1nccs1,29 nM,138 nM,
N=C(N)NCCC[C@@H](NC(=O)CN1CCCC[C@H](NS(=O)(=O)Cc2ccccc2)C1=O)C(=O)c1nccs1,,38 nM,
N=C(N)NCCC[C@@H](NS(=O)(=O)Cc1ccccc1)C(=O)NCC(=O)N[C@H](CCCNC(=N)N)C(=O)c1nccs1,,10000 nM,k on [3]: 6.5e+06 M⁻¹ s⁻¹; IC50 [4]: 27 nM; Plasma concentration [5]: 0.07 µM; IC50 [6]: 329 nM; half-life [7]: 24 min; 2x TG [8]: 0.18 µM; IC50 [9]: 6000 nM; Inhibition [10]: 100%; 2x PT [11]: 6.8 µM; 2x APTT [12]: 0.5 µM; IC50 [13]: 309 nM; IC50 [14]: 0.8 nM
N=C(N)NCCCC(NC(=O)CN1CCN(S(=O)(=O)c2ccc(F)cc2)CC1=O)C(=O)c1nccs1 (stereo not drawn),2 nM,751 nM,
